Laboratory results taken from patent US20090325873A1, “HUMAN GLP-1 MIMETIBODIES, COMPOSITIONS, METHODS AND USES” (CENTOCOR, INC., priority 2006, published 2009).
Where no end group is shown, it is not given here.

What was measured:
db/db mice = assay: Blood glucose in db/db mice after intravenous dosing; format: in vivo; settings: six week old db/db mice, 0.5-4 hours post-dosing, MMB dose 100-fold lower than peptide dose
Description: Blood glucose was monitored 0.5, 1, 2, 3, and 4 hours post-dosing.

female beagle dogs = assay: Gastric emptying in normal dogs; format: in vivo; settings: lidamidine 0.63 mg/kg sc 60 minutes before the meal; GLP-1 MMB 0.1 mg/kg iv 15 minutes before the meal
Description: A gastric cannula was surgically implanted into female beagle dogs (10-15 kg) under general anesthesia and allowed to recover for at least 2 weeks. Dogs were fasted for 24 hours after which water was freely available. The gastric cannula was opened and gastric juice and food remnants were removed with 40-50 ml of lukewarm water. Groups of six dogs were dosed subcutaneously with lidamidine, an alpha2 agonist (0.63 mg/kg), 60 minutes before the meal, a positive control for delay of gastric emptying. […] Five minutes before the meal, the gastric cannula was opened to determine the amount of fluid present in stomach for baseline value and fluid was promptly reintroduced. Then a test meal consisting of 250 ml of a glucose solution (5 g/l) was administered via the cannula and allowed to remain in the stomach for 30 minutes. Gastric contents were drained from the stomach to measure total volume after 30 minutes. […] Glucose concentrations were evaluated for collected samples and used to determine the absolute amount of glucose remaining in the stomach at each time point. The percentage of glucose retained in the stomach was determined from the starting value and the concentration of glucose at each time point and plotted as a function of time. The time at which 50% of the gastric contents were retained was determined by fitting of the curves to a single exponential.

[1] = administered subcutaneously; cited from earlier work
RINm cells = assay: Insulin secretion in RINm cells; format: cell-based; settings: peptides 0-5 nM, mimetibodies 5 or 50 nM, ELISA
Description: To test the effect of GLP-1 MMB in insulin secretion, RINm cells were treated with increasing concentrations of GLP-1 (7-36) peptide (0-5 nM), exendin-4 peptide (0-5 nM), or various GLP-1 mimetibodies (5 or 50 nM) and the amount of insulin secreted was measured via ELISA. All GLP-1 MMBs tested had activities in stimulating insulin secretion in RINm cells (FIG. 6).

wild type mice [2] = assay: Food intake in wild type mice; format: in vivo; settings: single iv GLP-1 MMB 1 mg/kg, exendin-4 0.07 mg/kg
GLP-1R−/− mice [3] = assay: Food intake in GLP-1R−/− mice; format: in vivo; settings: single iv GLP-1 MMB 1 mg/kg, exendin-4 0.07 mg/kg
wild type mice [4] = assay: Glucose tolerance test (ipGTT) in wild type mice; format: in vivo; settings: single iv GLP-1 MMB 1 mg/kg, exendin-4 0.07 mg/kg
wild type mice [5] = assay: Gastric emptying in wild type mice; format: in vivo; settings: iv GLP-1 MMB 1 mg/kg, exendin-4 0.07 mg/kg
Description: (§1) Materials/Methods: Animals: Male GLP-1R−/− and age matched wild type mice were randomized into three treatment groups (n=5) based on body weight and fasting blood glucose. […] The next morning mice were re-fed for 1 h, food intake was recorded and the mice were deprived of food for the rest of the study. Mice were dosed intravenously as discussed above. Two hours post-dosing mice were euthanized. The stomach was exposed by laparotomy, ligated at both the pylorus and cardia and removed. The stomach content wet weight was measured. Equation 1 was used to calculate the percent of food remaining in the stomach.
(§2) (Stomach Content Wet Weight(g)/Food Intake(g))*100 Equation (1)

GLP-1R−/− mice [6] = assay: Gastric emptying in GLP-1R−/− mice; format: in vivo; settings: iv GLP-1 MMB 1 mg/kg, exendin-4 0.07 mg/kg
Description: as §1, §2

CC[C@H](C)[C@H](NC(=O)[C@H](Cc1ccccc1)NC(=O)[C@H](CCC(=O)O)NC(=O)[C@H](CCCCN)NC(=O)[C@H](C)NC(=O)[C@H](C)NC(=O)[C@H](CCC(N)=O)NC(=O)CNC(=O)[C@H](CCC(=O)O)NC(=O)[C@H](CC(C)C)NC(=O)[C@H](Cc1ccc(O)cc1)NC(=O)[C@H](CO)NC(=O)[C@H](CO)NC(=O)[C@@H](NC(=O)[C@H](CC(=O)O)NC(=O)[C@H](CO)NC(=O)[C@@H](NC(=O)[C@H](Cc1ccccc1)NC(=O)[C@@H](NC(=O)CNC(=O)[C@H](CCC(=O)O)NC(=O)[C@H](C)NC(=O)[C@@H](N)Cc1c[nH]cn1)[C@@H](C)O)[C@@H](C)O)C(C)C)C(=O)N[C@@H](C)C(=O)N[C@@H](Cc1c[nH]c2ccccc12)C(=O)N[C@@H](CC(C)C)C(=O)N[C@H](C(=O)N[C@@H](CCCCN)C(=O)NCC(=O)N[C@@H](CCCNC(=N)N)C(N)=O)C(C)C [GLP-1 peptide]
blood glucose (db/db mice): lowered blood glucose at 30 minutes

CN=C(N)NC(=O)Nc1c(C)cccc1C [lidamidine]
time in which 50% of the gastric contents were emptied (female beagle dogs): 30.60 ± 6.47 min

GLP-1 (7-36) amide: GLP-1 (7-36) amide
time action [1]: about 50 minutes

GLP-1 (7-36) peptide: wide-type GLP-1 (7-36) peptide (HAEGTFTSDVSSYLEGQAAKEFIAWLVKGR; ends and bridges not checked; UniProt P01275 98-127, looked up)
stimulation of insulin secretion in RINm cells (RINm cells): stimulates insulin release

exendin-4 [reference compound]
stimulation of insulin secretion in RINm cells (RINm cells): stimulates insulin release | 24 hour cumulative food intake vs CNTO1996 (wild type mice [2]): statistically significant reduction in food intake | 24 hour cumulative food intake (GLP-1R−/− mice [3]): no effect on food intake | area under the curve (AUC) of the ipGTT (wild type mice [4]): statistically significant reduction in the AUC | stomach content (percent of food remaining) 2 h after dosing vs CNTO1996 (wild type mice [5]): statistically significant increase in stomach content | gastric emptying 2 h after dosing (GLP-1R−/− mice [6]): no effect on gastric emptying
